Test results published in PubChem BioAssay AID1918942 (Molecular Pharmacology Branch, DTP, NCI, 2023).

System: 743489-274-T-PDC complex spheroid viability
Experiment: Anticancer human tumor 743489-274-T-PDC patient-derived renal cell carcinoma cell line growth inhibition
Conditions: for IC50: curve of first compound; for viability, T/C: stronger effect = lower value
Description: Multicellular complex tumor spheroid response to LSD1 Inhibitor Iadademstat in combination with a variety of drugs and investigational agents in selected tumor cell lines
The current study was undertaken to assess response to LSD1 inhibitors in combination with standard-of-care drugs and investigational agents in solid tumor complex spheroid models as well as in the K-562 leukemia. Complex spheroids include a stromal component modeled by human endothelial cells (HUVEC) and fibroblasts modeled by human mesenchymal stem cells (MSCs). The concentration ranges selected for each drug and investigational agent were based upon clinically achievable concentrations if the clinical Cmax of the agent was known.
Compounds. The drugs and investigational agents used in this study are listed on Table 1. All of the agents used, including staurosporine (NSC755774) and gemcitabine (NSC613327), were obtained from the Developmental Therapeutics Program, NCI. FDA-approved anticancer drugs are available from the NCI at http://dtp.nci.nih.gov/branches/dscb/oncology_drugset_explanation.html. Drugs and investigational agents were >95% pure by proton nuclear magnetic resonance (NMR) and liquid chromatography/mass spectrometry (LC/MS). Stock solutions were prepared at 400x in DMSO, stored at -70 degrees C, and diluted in fresh medium prior to their use. The final concentration of DMSO in cell culture wells never exceeded 0.25% (v/v). The FDA-approved anticancer drug set is available from the Developmental Therapeutics Program at https://dtp.cancer.gov/organization/dscb/obtaining/available_plates.htm. All drugs and investigational agents were tested over a range starting from a high concentration at or near the clinical Cmax and decreasing in half-log increments. If the clinical Cmax for an agent had not been determined, the highest concentration tested was 10 microM.
Cell Lines. The patient-derived cancer cell (PDC) lines: 292921-168-R-J2-PDC, K24384-001-R-PDC, and 521955-158-R2-J5-PDC pancreatic carcinomas, 556581-035-R-J1 ovarian carcinoma, 324938-238-R-J1-PDC, 855422-203-R-J1-PDC and 883617-216-R-J1-PDC urothelial bladder carcinomas, 743489-274-T-PDC renal cell carcinoma, 138582-R-J1 Merkel cell tumor, K60290-347-R-J1 and K57222-313-R-J1-PDC glioblastomas, 653999-131-R-J2-PDC, LG0703-F948-PDC, and 349418-098-R-PDC non-small cell lung carcinomas, 885512-296-R-J2-PDC, 171881-019-R-J1-PDC breast carcinomas and 186277-243-T-J2-PDC and 233499-124-R-J2-PDC colon carcinomas were obtained from the NCI Patient-Derived Models Repository (PDMR, https://pdmr.cancer.gov). The established cell lines NCI/ADR-RES (RRID:CVCL_14520 and OVCAR-5 (RRID:CVCL_1628) ovarian carcinomas, 786-O (RRID:CVCL_1051) and A498 (RRID:CVCL_A498) renal cell carcinoma, NCI-H211 (ATCC, cat. CRL-5824; RRID:CVCL_1529), NCI-H196 (ATCC, cat. CRL-5823, RRID:CVCL_1509), SW 1271 (ATCC, cat. CRL-2177, RRID:CVCL_1716) and NCI-H1876 (ATCC, cat. CRL-5902, RRID:CVCL_1503) small cell lung carcinomas, MDA-MB-231 (RRID:CVCL_0062) and MDA-MB-468 (RRID:CVCL_0419)breast carcinomas (10-12). Pooled donor human umbilical vein endothelial cells (HUVEC, Lonza, cat. CC-2519) and human mesenchymal stem cells (hMSC, Lonza, cat. PT-2501) were purchased from Lonza (Walkersville, MD).
Cell Culture. All cells were maintained in an incubator at 37 degrees C and 5% CO2 with 95% humidity. The PDC lines were cultured according to standard operating procedures established by the NCI PDMR (https://pdmr.cancer.gov). Briefly all PDCs were thawed and cultured in Matrigel-coated flasks prepared with a working solution of 1X Ham's F-12 nutrient mix, without supplementation (Invitrogen, Waltham, MA, cat. 11765054), 100 U/mL penicillin-streptomycin (Invitrogen, cat. 15140122), and 2.5% Matrigel (Corning Inc., Corning, NY, cat. 354248) for the first three passages. […]

[1] = second compound 0.1 µM, first compound 0.00316 µM
[2] = second compound 0.1 µM, first compound 0.01 µM
[3] = second compound 0.1 µM, first compound 0.0316 µM
[4] = second compound 0.1 µM, first compound 0.1 µM
[5] = second compound 0.316 µM, first compound 0.00316 µM
[6] = second compound 0.316 µM, first compound 0.01 µM
[7] = second compound 0.316 µM, first compound 0.0316 µM
[8] = second compound 0.316 µM, first compound 0.1 µM
[9] = second compound 1 µM, first compound 0.00316 µM
[10] = second compound 1 µM, first compound 0.01 µM
[11] = second compound 1 µM, first compound 0.0316 µM
[12] = second compound 1 µM, first compound 0.1 µM
[13] = second compound 3.16 µM, first compound 0.00316 µM
[14] = second compound 3.16 µM, first compound 0.01 µM
[15] = second compound 3.16 µM, first compound 0.0316 µM
[16] = second compound 3.16 µM, first compound 0.1 µM
[17] = second compound 10 µM, first compound 0.00316 µM
[18] = second compound 10 µM, first compound 0.01 µM
[19] = second compound 10 µM, first compound 0.0316 µM
[20] = second compound 10 µM, first compound 0.1 µM
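Also: spheroids exposed to compounds for 7 days before readout.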
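For viability, T/C in this document: 100% = DMSO vehicle control wells.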

SMILES: CC[C@@]1(O)C(=O)OCc2c1cc1n(c2=O)Cc2cc3c(CN(C)C)c(O)ccc3nc2-1 + NC1CC1c1ccc(-c2cccc(O)c2)cc1
- IC50 (second compound 0.1 µM): > 100 nM
- IC50 (second compound 0.316 µM): > 100 nM
- IC50 (second compound 1 µM): > 100 nM
- IC50 (second compound 3.16 µM): 58.7 nM
- IC50 (second compound 10 µM): > 100 nM
- viability, T/C (second compound 0.1 µM, first compound 0.000316 µM): 98.9%
- viability, T/C (second compound 0.1 µM, first compound 0.001 µM): 95.7%
- viability, T/C [1]: 104%
- viability, T/C [2]: 97.8%
- viability, T/C [3]: 66.4%
- viability, T/C [4]: 55.7%
- viability, T/C (second compound 0.316 µM, first compound 0.000316 µM): 103%
- viability, T/C (second compound 0.316 µM, first compound 0.001 µM): 99.6%
- viability, T/C [5]: 89.7%
- viability, T/C [6]: 74.3%
- viability, T/C [7]: 67.9%
- viability, T/C [8]: 53.9%
- viability, T/C (second compound 1 µM, first compound 0.000316 µM): 97.7%
- viability, T/C (second compound 1 µM, first compound 0.001 µM): 100%
- viability, T/C [9]: 80%
- viability, T/C [10]: 76.3%
- viability, T/C [11]: 68.5%
- viability, T/C [12]: 55.3%
- viability, T/C (second compound 3.16 µM, first compound 0.000316 µM): 101%
- viability, T/C (second compound 3.16 µM, first compound 0.001 µM): 86.7%
- viability, T/C [13]: 78.3%
- viability, T/C [14]: 69.9%
- viability, T/C [15]: 53.8%
- viability, T/C [16]: 45%
- viability, T/C (second compound 10 µM, first compound 0.000316 µM): 120%
- viability, T/C (second compound 10 µM, first compound 0.001 µM): 93%
- viability, T/C [17]: 90.6%
- viability, T/C [18]: 70.5%
- viability, T/C [19]: 77.6%
- viability, T/C [20]: 50.3%

SMILES: COc1cc(C2c3cc4c(cc3C(OC3OC5COC(C)OC5C(O)C3O)C3COC(=O)C23)OCO4)cc(OC)c1O (stereo not given) + NC1CC1c1ccc(-c2cccc(O)c2)cc1
- IC50 (second compound 0.1 µM): > 3000 nM
- IC50 (second compound 0.316 µM): > 3000 nM
- IC50 (second compound 1 µM): > 3000 nM
- IC50 (second compound 3.16 µM): > 3000 nM
- IC50 (second compound 10 µM): > 3000 nM
- viability, T/C (second compound 0.1 µM, first compound 0.00949 µM): 107%
- viability, T/C (second compound 0.1 µM, first compound 0.03 µM): 91.7%
- viability, T/C (second compound 0.1 µM, first compound 0.0949 µM): 98%
- viability, T/C (second compound 0.1 µM, first compound 0.3 µM): 88.7%
- viability, T/C (second compound 0.1 µM, first compound 0.949 µM): 77.6%
- viability, T/C (second compound 0.1 µM, first compound 3 µM): 76.9%
- viability, T/C (second compound 0.316 µM, first compound 0.00949 µM): 103%
- viability, T/C (second compound 0.316 µM, first compound 0.03 µM): 99.5%
- viability, T/C (second compound 0.316 µM, first compound 0.0949 µM): 91.9%
- viability, T/C (second compound 0.316 µM, first compound 0.3 µM): 76.7%
- viability, T/C (second compound 0.316 µM, first compound 0.949 µM): 74.6%
- viability, T/C (second compound 0.316 µM, first compound 3 µM): 79.7%
- viability, T/C (second compound 1 µM, first compound 0.00949 µM): 92.8%
- viability, T/C (second compound 1 µM, first compound 0.03 µM): 104%
- viability, T/C (second compound 1 µM, first compound 0.0949 µM): 91.5%
- viability, T/C (second compound 1 µM, first compound 0.3 µM): 92.2%
- viability, T/C (second compound 1 µM, first compound 0.949 µM): 85.8%
- viability, T/C (second compound 1 µM, first compound 3 µM): 76.5%
- viability, T/C (second compound 3.16 µM, first compound 0.00949 µM): 87.9%
- viability, T/C (second compound 3.16 µM, first compound 0.03 µM): 95.2%
- viability, T/C (second compound 3.16 µM, first compound 0.0949 µM): 87.6%
- viability, T/C (second compound 3.16 µM, first compound 0.3 µM): 87.5%
- viability, T/C (second compound 3.16 µM, first compound 0.949 µM): 78.6%
- viability, T/C (second compound 3.16 µM, first compound 3 µM): 79.3%
- viability, T/C (second compound 10 µM, first compound 0.00949 µM): 97.2%
- viability, T/C (second compound 10 µM, first compound 0.03 µM): 89.9%
- viability, T/C (second compound 10 µM, first compound 0.0949 µM): 97%
- viability, T/C (second compound 10 µM, first compound 0.3 µM): 83.9%
- viability, T/C (second compound 10 µM, first compound 0.949 µM): 80.7%
- viability, T/C (second compound 10 µM, first compound 3 µM): 70.4%

SMILES: Nc1ncn(C2CC(O)C(CO)O2)c(=O)n1 (stereo not given) + NC1CC1c1ccc(-c2cccc(O)c2)cc1
- IC50 (second compound 0.1 µM): > 1000 nM
- IC50 (second compound 0.316 µM): > 1000 nM
- IC50 (second compound 1 µM): > 1000 nM
- IC50 (second compound 3.16 µM): > 1000 nM
- IC50 (second compound 10 µM): > 1000 nM
- viability, T/C [1]: 109%
- viability, T/C [2]: 101%
- viability, T/C [3]: 97.9%
- viability, T/C [4]: 95.1%
- viability, T/C (second compound 0.1 µM, first compound 0.316 µM): 91.2%
- viability, T/C (second compound 0.1 µM, first compound 1 µM): 117%
- viability, T/C [5]: 104%
- viability, T/C [6]: 101%
- viability, T/C [7]: 97.7%
- viability, T/C [8]: 91.5%
- viability, T/C (second compound 0.316 µM, first compound 0.316 µM): 102%
- viability, T/C (second compound 0.316 µM, first compound 1 µM): 95.3%
- viability, T/C [9]: 107%
- viability, T/C [10]: 110%
- viability, T/C [11]: 94.1%
- viability, T/C [12]: 89.6%
- viability, T/C (second compound 1 µM, first compound 0.316 µM): 90%
- viability, T/C (second compound 1 µM, first compound 1 µM): 93%
- viability, T/C [13]: 93.2%
- viability, T/C [14]: 102%
- viability, T/C [15]: 105%
- viability, T/C [16]: 88.2%
- viability, T/C (second compound 3.16 µM, first compound 0.316 µM): 82.5%
- viability, T/C (second compound 3.16 µM, first compound 1 µM): 86.8%
- viability, T/C [17]: 102%
- viability, T/C [18]: 126%
- viability, T/C [19]: 104%
- viability, T/C [20]: 99.7%
- viability, T/C (second compound 10 µM, first compound 0.316 µM): 83.2%
- viability, T/C (second compound 10 µM, first compound 1 µM): 88.6%
